Our source for the MIC and Activity values is ChEMBL document CHEMBL1155092, “Antibacterial activity of labdane diterpenoids from Stemodia foliosa” (2008).

Experiment [1] has as its system Micrococcus luteus. In words: Antimicrobial activity against Micrococcus luteus. Format: functional.
Experiment [2] deals with Bacillus subtilis. In words: Antimicrobial activity against Bacillus subtilis. Format: functional.
The subject of experiment [3] is Mycolicibacterium phlei. In words: Antimicrobial activity against Mycobacterium phlei. Format: functional.
Experiment [4] relates to Bacillus cereus. In words: Antimicrobial activity against Bacillus cereus. Format: functional.
Experiment [5] deals with Staphylococcus aureus. The experiment is described as follows: Antimicrobial activity against Staphylococcus aureus. Format: functional.
For experiment [6], the system named is Mycolicibacterium smegmatis. In words: Antimicrobial activity against Mycobacterium smegmatis. Format: functional.
The test system of experiment [7] is Bacillus anthracis. The experiment is described as follows: Antimicrobial activity against Bacillus anthracis. Format: functional.
The test system of experiment [8] is Bacillus anthracis. In words: Antimicrobial activity against Bacillus anthracis at 50 ug/ml. Format: functional, organism-based.
The subject of experiment [9] is Bacillus cereus. In words: Antimicrobial activity against Bacillus cereus at 50 ug/ml. Format: functional, organism-based.
The subject of experiment [10] is Micrococcus luteus. The experiment is described as follows: Antimicrobial activity against Micrococcus luteus at 50 ug/ml. Format: functional, organism-based.
Experiment [11] has as its system Mycolicibacterium smegmatis. The experiment is described as follows: Antimicrobial activity against Mycobacterium smegmatis at 50 ug/ml. Format: functional, organism-based.
In experiment [12] the test system is Staphylococcus aureus. In words: Antimicrobial activity against Staphylococcus aureus at 50 ug/ml. Format: functional, organism-based.
Experiment [13] concerns Bacillus subtilis. In words: Antimicrobial activity against Bacillus subtilis at 50 ug/ml. Format: functional, organism-based.
Experiment [14] concerns Mycolicibacterium phlei. In words: Antimicrobial activity against Mycobacterium phlei at 50 ug/ml. Format: functional, organism-based.

Converted amounts (≈) assume the structure as drawn. The source made the active and inactive calls. The rule behind the calls is not given here.

`C=C[C@@]1(C)CC[C@@H]2[C@@]3(C)CCCC(C)(C)[C@@H]3[C@@H](OC(=O)CC(=O)O)C[C@@]2(C)O1`: the minimum inhibitory concentration (MIC) (as a rule, the lowest concentration that inhibits growth of the organism) in the experiment with Micrococcus luteus [1] was found to be 17 µg/mL (≈ 43.3 µM); with Bacillus subtilis [2], 15 µg/mL (≈ 38.2 µM); with Mycolicibacterium phlei [3] it was 9 µg/mL (≈ 22.9 µM); in the experiment with Bacillus cereus [4], 15 µg/mL (≈ 38.2 µM); in the experiment on Staphylococcus aureus [5] it was 15 µg/mL (≈ 38.2 µM); in experiment [6], 7 µg/mL (≈ 17.8 µM). This molecule came in with an MIC with Bacillus anthracis [7] of 20 µg/mL (≈ 51 µM).

Regarding `CC[C@H]1OC(=O)[C@H](C)[C@@H](O[C@H]2C[C@@](C)(OC)[C@@H](O)[C@H](C)O2)[C@H](C)[C@@H](O[C@@H]2O[C@H](C)C[C@H](N(C)C)[C@H]2O)[C@](C)(OC)C[C@@H](C)C(=O)[C@H](C)[C@@H](O)[C@]1(C)O` [CLARITHROMYCIN], the MIC against Micrococcus luteus [1] was found to be 2 µg/mL (≈ 2.67 µM); against Bacillus subtilis [2], 1.7 µg/mL (≈ 2.27 µM); with Mycolicibacterium phlei [3] it was 0.5 µg/mL (≈ 0.668 µM); against Staphylococcus aureus [5], 0.8 µg/mL (≈ 1.07 µM); in experiment [6], 0.5 µg/mL (≈ 0.668 µM); in the experiment on Bacillus anthracis [7], 1.3 µg/mL (≈ 1.74 µM).

With `C=C[C@@]1(C)CC[C@@H]2[C@@]3(C)CCCC(C)(C)[C@@H]3[C@@H](OC(=O)CC(=O)OCCCC)C[C@@]2(C)O1`, the outcome (with Bacillus anthracis [8]; with Bacillus cereus [9]; with Micrococcus luteus [10]; in [11]; in the experiment on Staphylococcus aureus [12]; with Bacillus subtilis [13]) was inactive. In the experiment on Mycolicibacterium phlei [14], the outcome was inactive.

Consider `C=C[C@@]1(C)CC[C@@H]2[C@@]3(C)CCCC(C)(C)[C@@H]3[C@@H](OC(C)=O)C[C@@]2(C)O1`, for which the outcome (in the experiment on Bacillus anthracis [8]; with Bacillus cereus [9]; with Micrococcus luteus [10]; in experiment [11]; in the experiment with Staphylococcus aureus [12]; in the experiment on Bacillus subtilis [13]) was inactive. Besides, the outcome in the experiment on Mycolicibacterium phlei [14] was inactive.
